Where “and” joins values, the source holds several entries; their conditions need not be identical. Equal entries are not always repeated. Where two headings read alike, the source gives them in different places. Each block holds one compound with its values, some of them ahead of it.
How the values were obtained:
[1] = Precipitation in 1 mM intermediate solutions (visual and microscopic examination); format: physicochemical; conditions: for Appearance of 1 mM solution in 5% F127: 1 mM in 5% F127, room temperature; for Appearance of 1 mM/FSW intermediate solution: 1 mM in FSW
Experimental: Stock solutions of albendazole 1 and isoxazole 2 were prepared in DMSO and 2-pyrrolidone at 10 mM concentration, and stock solutions of chalcones 3 and 4 were prepared in DMSO at 10 mM concentration. […] The precipitation of compounds was analyzed via both visual and microscopic examination.

[2] = system: sea urchin embryos
Experimental: Toxic effects were assessed by exposing fertilized eggs (5−18 min after fertilization) to 2-fold decreasing concentrations of Pluronics. Embryo development was monitored at room temperature until the beginning of active feeding (four-arm mid-pluteus stage). The effects were detected at the following developmental stages: cleavage (2.5 and 5.5–6 h after fertilization), hatched mid-blastula (8.5–9.5 h), mesenchyme blastula (~11 h), prism (20–21 h), early pluteus (25–27 h), and four-arm pluteus (34–35 h) (Figure S2). The effects were estimated quantitatively as no observed effect concentration (NOEC), minimum effective concentration (MEC), and minimum lethal concentration (MLC).

[3] = pH 7.0; cited from earlier work
[4] = Aqueous solubility of chalcones in PBS or Pluronic solutions (UV absorbance of saturated supernatant); format: physicochemical; conditions: for Increase of solubility: Pluronic P123 concentration up to 10%, 25 °C; for Increase of solubility / solubility: PBS pH 7.4; for Enhancement of solubility in aqueous medium: in the presence of 5% Pluronic 123; for solubility: phosphate-buffered saline (PBS) without Pluronics, aqueous with cosolvent or surfactant or cyclodextrin, kinetic from dmso stock, without Pluronics
Experimental: The absorbance of chalcone solutions in DMSO was measured using an Ultrospec 1100 Pro UV/Vis spectrophotometer. […] To this end, 100 mg/mL solutions of 3 and 4 in DMSO were prepared and diluted 10-fold either with neat PBS or with Pluronic solutions of various concentrations. Dilution with PBS yielded the precipitation of the most part of the solute. The precipitated chalcones were removed via centrifugation at 9000 rpm for 5 min. The supernatant represented a saturated solution of the chalcone in the aqueous medium. Then, the supernatants were 10–1000-fold diluted with DMSO, their absorbance was measured at 367 nm for 3 or 350 nm for 4, and the aqueous solubility of chalcones was calculated using the εDMSO values obtained previously. The solubility values were measured in 2–4 repetitions and presented in the graphs as the mean ± SD for p < 0.05.

[5] = solvents in the in vivo sea urchin embryo assay

Compound: COc1ccc(-c2cnoc2-c2cc(OC)c(OC)c(OC)c2)cc1 [compound 2]
Appearance of 1 mM solution in 5% F127 [1]: remained clear throughout four days of storage at room temperature
Appearance of 1 mM/FSW intermediate solution [1]: opaque, followed by the precipitation of crystals in the bottom of the vial

Compound: O=C1CCCN1 [2-pyrrolidone, 2-Pyrrolidone]
NOEC [2, 5]: 0.1 % v/v

Compound: CCCSc1ccc2nc(NC(=O)OC)[nH]c2c1 [compound 1, albendazole]
Aqueous solubility [3]: < 1 µg/mL
Appearance of 1 mM solution in 5% F127 [1]: formed opaque 1 mM solution in 5% F127
Appearance of 1 mM/FSW intermediate solution [1]: formed a thick suspension of fine crystals

Increase of solubility [4]: 13 fold
Enhancement of solubility in aqueous medium [4]: enhanced by an order of magnitude
solubility [4]: 344 µg/mL and 1000 µM
Compound: COc1ccc(/C=C/C(=O)c2cc(OC)c(OC)c(OC)c2)cc1O [compound 3]
Appearance of 1 mM/FSW intermediate solution [1]: clear without any visible signs of precipitation

Compound: C[S+](C)[O-] [DMSO]
NOEC [2, 5]: 0.2 % v/v

MEC relative to CMC ([2]; in vivo): ~ 6 times
Reduction of MEC ([2]; in vivo): 4 times
Compound: Pluronic P123

Compound: CCO [EtOH]
NOEC ([2]; in vivo): 0.5 % v/v

Increase of solubility [4]: 19 fold
Enhancement of solubility in aqueous medium [4]: enhanced by an order of magnitude
solubility [4]: 88.7 µg/mL and 270 µM
Compound: COc1ccc(/C=C/C(=O)c2cc(OC)c(OC)c(OC)c2)cc1 [compound 4]
Appearance of 1 mM/FSW intermediate solution [1]: formed a thick suspension of fine crystals

— PMC10572563, “Application of Pluronics for Enhancing Aqueous Solubility of Lipophilic Microtubule Destabilizing Compounds on the Sea Urchin Embryo Model” (International Journal of Molecular Sciences, 2023)
